In assay [1] the target is T1, prolyl endopeptidase (Sus scrofa, UniProt P23687).
T1 construct: porcine kidney enzyme which was prepared according to methods of Walter and Yoshimoto et al; from tissue; host or cells: porcine kidney
In words: Prolyl endopeptidase-inhibitory activity in vitro (porcine kidney enzyme, Z-Gly-Pro-p-nitroanilide substrate). The format is biochemical. Here is the method: A test compound (2 mg) was dissolved in DMSO (2 ml) and diluted to appropriate concentrations with DMSO. Z-Gly-Pro-p-nitroanilide (8 mg), a substrate was dissolved in dioxane (5 ml), water (27 ml) and 0.2 M phosphate buffer (pH 7.8, 40 ml). The substrate solution ([…]) was mixed with an inhibitor solution (3 ml) and followed by addition of above mentioned porcine kidney enzyme solution ([…]). Immediately after the mixing the UV absorbance at 405 nm was detected. The mixture was incubated at 37° C. for 20 min. and the UV absorbance was checked. A standard curve of absorbance (OD) vs. p-nitroaniline concentration was used to relate the absorbance to amount of substrate hydrolyzed. […] The inhibiting activity was obtained following the equation below. The IC50 value was estimated from the inhibitor concentration vs. inhibitory activity curve.
The percent inhibitory activity (%)=(ΔODc -ΔODs)/ΔODc ×100
ΔODs : ΔOD for test sample

The subject of assay [2] is brain prolyl endopeptidase. The assay can be described thus: Ex vivo prolyl endopeptidase inhibition in brain after oral administration. The note with it: rat, p.o.; for PEP Actively in brain (% of control): 10 mg/kg. The method, then: Ex vivo enzyme inhibition studies were performed to assess the degree of CNS availability and prolyl endpeptidase inhibition after oral administration. Compounds were dissolved in a minimal mount of ethanol (about 10% total volume) and made up to the appropriate volume with 1% polyoxyether sorbitan monooleate (Tween 80). Rats were dosed p.o. and at the appropriate times killed. The brains were removed, homogenised in the ice-cooled assay buffer, and centrifugated.

Molecules are shown by their SMILES. Read-outs that look alike come from different tables or passages of the source.

T1 sequence (P23687 whole entry): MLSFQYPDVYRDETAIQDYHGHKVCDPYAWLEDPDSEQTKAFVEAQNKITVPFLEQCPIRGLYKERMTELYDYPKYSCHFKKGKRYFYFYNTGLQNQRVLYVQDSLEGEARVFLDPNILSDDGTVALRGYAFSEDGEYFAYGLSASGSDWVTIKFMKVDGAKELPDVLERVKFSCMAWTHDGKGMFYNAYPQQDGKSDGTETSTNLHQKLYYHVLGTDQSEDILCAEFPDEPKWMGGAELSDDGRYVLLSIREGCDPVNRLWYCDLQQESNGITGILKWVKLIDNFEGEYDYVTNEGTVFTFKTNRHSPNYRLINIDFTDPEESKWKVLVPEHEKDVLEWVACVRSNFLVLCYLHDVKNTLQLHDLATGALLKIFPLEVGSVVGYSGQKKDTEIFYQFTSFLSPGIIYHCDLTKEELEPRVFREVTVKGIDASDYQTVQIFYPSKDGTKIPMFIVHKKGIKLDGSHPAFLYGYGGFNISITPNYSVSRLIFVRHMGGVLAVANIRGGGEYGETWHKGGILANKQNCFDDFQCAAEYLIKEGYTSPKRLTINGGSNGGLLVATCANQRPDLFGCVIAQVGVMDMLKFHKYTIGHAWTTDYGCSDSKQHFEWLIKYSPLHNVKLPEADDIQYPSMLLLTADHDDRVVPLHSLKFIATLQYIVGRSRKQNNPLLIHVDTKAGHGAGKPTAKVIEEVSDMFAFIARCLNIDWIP

With `O=C(c1nc2ccccc2s1)[C@@H]1CCCN1C(=O)[C@@H]1CCCN1C(=O)CCCc1ccccc1` [Example 1, 2-[1-{1-(4-Phenylbutanoyl)pyrrolidin-2(S)-ylcarbonyl}pyrrolidin-2(S)-ylcarbonyl]benzothiazole], in assay [1] (porcine kidney enzyme, pH 7.8, 37° C., 20 min, read-out: IC50 (converted)), the IC50 is 2.14 nM. The “PEP Actively in brain (% of control)” value in assay [2] (0.25 hr) is 42 % of control; in assay [2] (0.5 hr) it was 21 % of control; in assay [2] (1 hr) it was 32 % of control; in assay [2] (2 hr), 47 % of control; in assay [2] (4 hr) it was 69 % of control; in assay [2] (6 hr), 98 % of control. Also, the “brain prolyl endopeptidase inhibition (potency compared with SUAM-1221)” value in assay [2] (ex vivo, in words) is recorded as “more potent than SUAM-1221”. In addition, the “duration of action on brain prolyl endopeptidase (compared with SUAM-1221)” value in assay [2] (ex vivo, in words) is “longer duration of action”.

Regarding `COc1nccnc1C(=O)[C@@H]1CCCN1C(=O)[C@@H]1CCCN1C(=O)CCCc1ccccc1` [Example 40, 2-Methoxy-3-[1-{1-(4-phenylbutanoyl)pyrrolidine-2(S)-ylcarbonyl}pyrrolidin-2(S)-ylcarbonyl]pyrazine], in assay [1], the IC50 is 33.3 nM.

In assay [1], `O=C(C1=NCCS1)[C@@H]1CCCN1C(=O)[C@@H]1CCCN1C(=O)CCCc1ccccc1` [Example 41, 2-[1-{1-(4-Phenylbutanoyl)pyrrolidin-2(S)-ylcarbonyl}pyrrolidin-2(S)-ylcarbonyl]thiazoline] showed an IC50 of 3.98 nM.

These data come from patent US5547978A, “Derivatives of pyrrolidin-2-ylcarbonylheterocyclic compounds” (priority 1994, dated 1996).
